Consider seven molecules from PMC10685318, “Trans-cyclosulfamidate mannose-configured cyclitol allows isoform-dependent inhibition of GH47 α-D-mannosidases through a bump–hole strategy” (Chemical Science, 2023).

The nature of data set [1]: Chemical stability of the final compounds on storage. Type of data set: physicochemical. Conditions: storage for a week at room temperature. From the text: 1,6-Cis-manno-cyclosulfate, 4, and 1,6-trans-manno-cyclosulfate, 5, were synthesized from mannose-configured cis-diol and trans-diol, respectively (ESI, Scheme S1 ^†).
Data set [2] has as its target GH47 model enzyme from Caulobacter K31 strain. Conditions: cited from earlier work.
Substrate in data set [3]: OC[C@H]1O[C@H](O[C@@H]2C(O)O[C@H](CO)[C@@H](O)[C@@H]2O)[C@@H](O)[C@@H](O)[C@@H]1O
Nature of the data set: purified protein, by the assay type. As to conditions: other: CkGH47 WT, substrate; pH 7.0.

Substrate in data set [4]: OC[C@H]1O[C@H](O[C@@H]2C(O)O[C@H](CO)[C@@H](O)[C@@H]2O)[C@@H](O)[C@@H](O)[C@@H]1O
Nature of the data set: purified protein, by the assay type. Type of data set: biochemical, Caulobacter K31 strain. As to conditions: other: CkGH47 L310S, substrate; pH 7.0. The method, then:
Fig. 4 Catalytic activity of CkGH47 WT compared to the CkGH47 L310S mutant. […] (C) The Ki, derived from the gradient (1/Ki), for 6 against CkGH47 L310S.
Trans-Cyclosulfamidate Cyclitols Males et al.
2.1 Biochemical and biological methods
To obtain Michaelis-Menten kinetics
Lastly, to achieve an inhibition constant, the
The gradient of the graph, V0/Vi
After taking each time point, the sample was heat denatured at 95 °C for 5 minutes. The reactions were conducted in triplicate and averaged. […]
microplate spectrophotometer (BioTek). The mannose detection kit (Megazyme) was used to detect […]
dehydrogenase, was monitored at 340 nm. The absorbance after hexokinase was added to the mixture […]
2.1.2 Isothermal titration calorimetry
MicroCal ITC200 calorimeter at 25 °C over 20 injections. The experiment was duplicated to obtain a […]
the MicroCal PEAK-ITC analysis software.
2.2 Crystallographic data collection and refinement of CkGH47
3′ and the reverse primer was 5′-[…]-3′. Protein production and purification was followed as described previously.[3]
Reference data in the form of a
Refinement of the model was conducted […]
conformation was conducted using […]. Details of the data collection and refinement statistics […]
Figures of the structure were produced by using CCP4mg.

Numbering of substitutions follows the chain as printed. Numbers in names are those of the source.

Turning to `O=S1(=O)O[C@@H]2[C@@H](O)[C@@H](O)[C@H](O)[C@@H](CO)[C@@H]2O1` [compound 4, 1,6-cis-manno-cyclosulfate], the stability on storage entry in data set [1] was “compound degradation”.
In the case of `O=S1(=O)O[C@@H]2[C@@H](O)[C@@H](O)[C@H](O)[C@@H](CO)[C@H]2O1` [compound 5, 1,6-trans-manno-cyclosulfate], the stability on storage result in data set [1] is “compound degradation”.
For the molecule `OC[C@H]1NC[C@@H](O)[C@@H](O)[C@@H]1O` [DMJ, 1-deoxymannojirimycin], the Kd in data set [2] is 481 nM.
As to `OC[C@@H]1[C@@H](O)[C@H](O)[C@H](O)c2nccn21` [mannoimidazole], in data set [2], the Kd is 47 nM.
Consider `O=C1N[C@@H]2[C@@H](O)[C@@H](O)[C@H](O)[C@@H](CO)N2C1=O` [kifunensine], for which, in data set [2], the Kd is 39 nM.

B1: CkGH47 WT (Caulobacter sp. K31) (protein)
chain: AAETTPEDWKALAADVRSEFQWAWQGYVAKAWGKDEINPVSGTSRSFFIEGHDLGLSLVEALDTLWIMGLDAEFQAGVDWVKANLSFDVDGNAQVFETNIRLVGGLLSAHLASGDPVLLAKARDLADRLAKAFEASPHGLPWRYVNLRTGAVSDPETNLAEIGTYLSEFGVLSQLTGERKYFDMAKRAMRHTLDRRSKIGLMAANIHAMTGAFTSRNASIDVYADSFYEYLWDAWALFGDEDCKRWAVECVDAQLAHQAKRYDGRLWFPMVDFETGAVTGTAQSELAAYYAGLLGQVGRKAQGDDYLASFTYLQATFGVIPESIDVTTGQPRRKHTGLRPEYPDACLNLWLIDRDPRYRRLAAIHYREMKATSRAAFGYTALKDITTRPMTQDDNCPGYWWSEQMKYYYLLFSDTPRIDYGQLQLSTEANVLRGFRKV
In the case of B1, in data set [3], the Km is listed as 65.7 ± 14.2 µM.

B2: CkGH47 L310S (Caulobacter sp. K31; L310S) (protein)
chain: B1 chain with L286S
On to B2, for which the Km in data set [4] is reported as 402.8 ± 71.3 µM.

By Kd is commonly meant the free concentration of one partner at which half of the binding sites on the other are occupied at equilibrium, for simple one-to-one binding. Usually Km stands for the concentration of substrate that gives half-maximal velocity.
